Consider 1 compound from PMC8230315, “A Pan-Inhibitor for Protein Arginine Methyltransferase Family Enzymes” (Biomolecules, 2021).

SMILES strings stand for the structures.

As usually defined, the IC50 is the point on the concentration scale where inhibition reaches its midpoint.

For one experiment, the system named is G9a. Put plainly: Selectivity SAHH-coupled fluorescence assay, G9a. Format: biochemical. An excerpt: We chose the top four potent compounds (6b and 6l–n) to investigate their selectivities against several in-house methyltransferases including protein arginine methyltransferase TbPRMT7, two members of the protein lysine methyltransferase PKMT (G9a and SETD7), protein N-terminal methyltransferase 1 (NTMT1), and a small molecule methyltransferase nicotinamide N-methyltransferase (NNMT), all of which have a SAM binding site.
A fluorescence-based SAHH-coupled assay was applied to study the effect of the compound on methyltransferase activity of PRMT7, NTMT1, SETD7, G9a, NNMT, and SAHH. For PRMT7, the assay was performed in a final well volume of 100 μL: 25 mM Tris (pH = 7.5), 50 mM KCl, 0.01% Triton X-100, 5 μM SAHH, 0.2 μM PRMT7, 3 μM AdoMet, and 15 μM ThioGlo1. After incubation for 10 min with the inhibitor, reactions were initiated by the addition of 60 μM H4-21 peptide, and the reaction was monitored for 15 min. […] After incubation for 10 min with the inhibitor, reactions were initiated by the addition of 0.5 μM GPKRIA peptide, and the reaction was monitored for 15 min. […] After incubation for 10 min with the inhibitor, reactions were initiated by the addition of 90 μM H3-21 peptide, and the reaction was monitored for 15 min. […] After incubation for 10 min with the inhibitor, reactions were initiated by the addition of 10 μM nicotinamide, and the reaction was monitored for 18 min. […]

A further experiment deals with T1, PRMT5 (C449S)/MEP50 (Homo sapiens, UniProt O14744, C449S).
T1 construct: purchased Reaction Biology
Put plainly: HotSpot radioisotope 3H-AdoMet methyltransferase assay, PRMT5 (C449S)/MEP50. Format: biochemical. As for the experimental part:
(§1) Future studies will focus on obtaining structural information of II757 bound to PRMTs to inform how to connect to a substrate portion to increase both potency and selectivity for each PRMT.
(§2) Figure 6 Selectivity of II757 against the panel of PRMTs. II757 was tested in 10 doses with threefold serial dilution in the HotSpot methyltransferase assay at reaction biology. TEXT PRINTED IN THE PICTURE: II757: IC50 (nM) PRMT1: 16.4; IC50 (nM) PRMT3: 321; IC50 (nM) PRMT4: 5.05; IC50 (nM) PRMT5/MEP50 Complex: 18.2; IC50 (nM) PRMT5 (C449S)/MEP50: 36.6; IC50 (nM) PRMT6: 30.5; IC50 (nM) PRMT7: 555; IC50 (nM) PRMT8: 32.1

For a further experiment, the target named is T2, PRMT8 (Homo sapiens, UniProt Q9NR22).
T2 construct: purchased Reaction Biology
Description: HotSpot radioisotope 3H-AdoMet methyltransferase assay, PRMT8. It counts as biochemical. As for the experimental part:
as §1, §2

Experiment [1] concerns histone H4 Arg3 asymmetric dimethylation (H4R3me2a). Description: Cellular arginine methylation assay, Western blot in HEK293 cells. Format: cell-based. To be noted: 48 h, at 10 µM. Here is the method: Furthermore, we proceeded to investigate the inhibitory effects of II757 on the methylation level of histone H4 Arg3 via Western blotting to check its cellular inhibition. […] Future studies will focus on tethering this moiety with reported substrate-competitive inhibitors to enhance the selectivity and cellular potency.
HEK293 cell line was cultured in DMEM media supplemented with 10% FBS and 1% antibiotic-antimycotic (Gibco, Fisher, Waltham, MA, USA). The cells were maintained in a tissue culture dish (Falcon 353003, Fisher, Waltham, MA, USA) until seeding at a density of 0.03 × 10^6 cells/mL into a 24-well tissue culture plate (Falcon 353047, Fisher, Waltham, MA, USA). The cells were incubated overnight at 37 °C in 5% CO2 with the lid on. They were then treated with the inhibitors at different concentrations for 48 h. […]
The protein was quantified using BCA (Pierce BCA Protein Assay Kit, 23225, Fisher, Waltham, MA, USA) and equal amounts of protein were resolved by SDS-PAGE electrophoresis and blotted on Transfer membrane (Immun-Blot PVDF Membranes, Bio-Rad, Hercules, CA, USA Bio-Rad, 1620177). […] The membranes were washed three times with 1X TBST for 5 min each, and the proteins were detected by ECL (Bio-Rad, Hercules, CA, USA).
(In general: Immunoblotting shows a protein as a band on a membrane.)

T2 sequence (Q9NR22 whole entry): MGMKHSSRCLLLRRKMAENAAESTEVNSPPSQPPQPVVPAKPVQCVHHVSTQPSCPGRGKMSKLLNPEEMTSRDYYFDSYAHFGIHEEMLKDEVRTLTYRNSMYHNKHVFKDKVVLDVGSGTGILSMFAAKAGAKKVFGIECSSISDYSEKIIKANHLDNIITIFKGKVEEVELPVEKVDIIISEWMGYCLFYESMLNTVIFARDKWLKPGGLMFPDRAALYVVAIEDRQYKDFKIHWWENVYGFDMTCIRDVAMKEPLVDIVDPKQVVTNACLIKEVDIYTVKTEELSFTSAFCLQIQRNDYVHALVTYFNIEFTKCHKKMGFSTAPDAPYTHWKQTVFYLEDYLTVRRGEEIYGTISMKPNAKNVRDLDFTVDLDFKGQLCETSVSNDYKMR
T1 sequence (O14744 whole entry C449S): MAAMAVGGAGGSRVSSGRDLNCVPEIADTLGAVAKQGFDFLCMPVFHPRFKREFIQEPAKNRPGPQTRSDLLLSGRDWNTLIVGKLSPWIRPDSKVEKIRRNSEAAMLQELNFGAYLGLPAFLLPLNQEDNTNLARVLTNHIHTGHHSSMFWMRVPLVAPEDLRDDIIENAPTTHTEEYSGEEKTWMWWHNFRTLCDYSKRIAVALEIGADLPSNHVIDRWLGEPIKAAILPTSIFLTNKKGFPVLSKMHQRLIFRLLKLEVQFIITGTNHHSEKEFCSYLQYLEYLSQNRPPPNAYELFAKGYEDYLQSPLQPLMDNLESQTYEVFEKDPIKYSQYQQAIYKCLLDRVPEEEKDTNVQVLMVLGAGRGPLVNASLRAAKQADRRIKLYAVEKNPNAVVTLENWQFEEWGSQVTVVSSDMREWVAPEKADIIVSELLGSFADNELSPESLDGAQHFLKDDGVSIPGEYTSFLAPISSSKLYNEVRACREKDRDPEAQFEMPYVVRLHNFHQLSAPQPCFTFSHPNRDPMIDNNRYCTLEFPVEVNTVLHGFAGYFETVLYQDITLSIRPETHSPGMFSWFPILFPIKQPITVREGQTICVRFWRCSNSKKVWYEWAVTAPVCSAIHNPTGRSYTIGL
T1 sequence (Q9BQA1 whole entry partner): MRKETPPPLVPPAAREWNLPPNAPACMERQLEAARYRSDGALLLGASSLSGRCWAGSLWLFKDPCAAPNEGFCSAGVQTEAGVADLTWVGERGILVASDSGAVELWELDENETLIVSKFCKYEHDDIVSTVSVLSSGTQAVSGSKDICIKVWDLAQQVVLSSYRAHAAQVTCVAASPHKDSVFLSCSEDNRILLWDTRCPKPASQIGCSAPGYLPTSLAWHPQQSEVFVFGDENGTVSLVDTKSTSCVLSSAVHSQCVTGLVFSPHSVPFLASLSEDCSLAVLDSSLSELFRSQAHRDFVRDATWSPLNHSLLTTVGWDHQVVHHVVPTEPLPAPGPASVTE

Regarding `N=C(NCCCSC[C@H]1O[C@@H](n2cnc3c(N)ncnc32)[C@H](O)[C@@H]1O)Nc1cccc(Br)c1` [Compound 6l, 1-(3-((((2S,3S,4R,5R)-5-(6-amino-9H-purin-9-yl)-3,4-dihydroxytetrahydrofuran-2-yl)methyl)thio)propyl)-3-(3-bromophenyl)guanidine], the “selectivity over G9a” value in the experiment with G9a is recorded as “over 1000 fold”. Also, the figures for the half-maximal inhibitory concentration (IC50) against PRMT5 (C449S)/MEP50 and at PRMT8 were 36.6 nM and 32.1 nM, respectively. The H4R3me2a level result in experiment [1] is on record as “decrease”.
